Test results from patent US11408891B2, “Imaging agent” (University of Lancaster, priority 2017, dated 2022).
Where two headings read alike, the source gives them in different places.

Tests used:
[1] = system: peroxisomes in HaCaT cells
Procedure: FIG. 1: Chemical structure of a compound of the invention (and the compound referred to in the figures for example as the platinum complex) and confocal micrograph of HaCaT cells after 10 minutes exposure to 25 μg/ml of the platinum complex (ex 405 nm, emission 505-740 nm). […] A compound of the invention may be prepared as a salt, for example as a sodium salt as described herein, and is used as an imaging agent in a buffer solution. HaCaT cells were grown on glass coverslips under the same conditions as in described in Steel 2015 referred to herein. […] The coverslips were then washed in PBS and mounted by inversion on a glass slide. Images were captured on a Zeiss LSM 850 Meta laser scanning confocal microscope.

[2] = system: peroxisomes (pDsRed2-Peroxi Vector labelled compartments); settings: photo-bleaching at 514 nm, complex excited at 405 nm (FIG. 4)
Procedure: FIG. 4: Co-localisation experiment with Clontech pDsRed2-Peroxi Vector. […] Fluorescence micrographs of co-localisation experiment i) Excited at 405 nm pre-photo-bleaching; ii) excited at 514 nm pre photo-bleaching iii) excited at 514 nm post photo-bleaching; iv) Excited at 405 nm post photo-bleaching. HaCaT cells were grown on glass coverslips under the same conditions as in described in Steel 2015 referred to herein. […] The coverslips were then washed in PBS and mounted by inversion on a glass slide. Images were captured on a Zeiss LSM 850 Meta laser scanning confocal microscope.

[3] = system: HaCaT cells; settings: HaCaT cells with and without microtubule-depolymerising levels of nocodazole (FIG. 2)
Procedure: HaCaT cells were grown on glass coverslips under the same conditions as in described in Steel 2015 referred to herein. […] The coverslips were then washed in PBS and mounted by inversion on a glass slide. Images were captured on a Zeiss LSM 850 Meta laser scanning confocal microscope.

[4] = PBS containing compound at 125 μg/ml, 10 minutes at 4° C.

PtMe3bpy-S-glutathione [compound A]
staining pattern ([1]; 10 minutes exposure to 25 μg/ml, ex 405 nm, emission 505-740 nm (FIG. 1)): punctate pattern
staining pattern [1, 4]: punctate staining pattern, characteristic of peroxisomes
uptake by cells [1, 4]: readily taken up by cells
co-localisation with peroxisome marker [2]: platinum complex emission was retained in the same cellular compartments
motility of the stained compartments [3]: microtubule-dependent motility
